Measurements as given in ChEMBL document CHEMBL5257026, “Progress and prospects on DENV protease inhibitors” (Eur J Med Chem, 2016).
Blank lines part the entries; values can stand above or below the molecule they belong to. Starred links: 1 amine or outer side, 2 acyl side, 3 side chain; linkers in the order of their positions; H or OH if unused. Non-standard residues stand in square brackets, D forms with d. Residues, ends and D or L forms follow the SMILES beside them. *: point of attachment. Arg(ψCOCO) = N=C(N)NCCC[C@H](N[*:1])C(=O)C(=O)[*:2]; Nle = CCCC[C@H](N)C(=O)O; PhAc = O=C(Cc1ccccc1)*; Bz = O=C(c1ccccc1)*

What was measured:
Set-up in all cases: species or system dengue virus type 2
[1] = Inhibition of DENV2 recombinant NS2B-NS3 protease expressed in Escherichia coli JM109 using acetyl-TTSTRR-para-nitroaniline as substrate preincubated for 10 mins followed by substrate addition measured after 120 mins by spectrophotometric analysis
[2] = Inhibition of DENV2 recombinant CF40gly(T)R fused NS2B-NS3 protease expressed in Escherichia coli XL1-Blue MRF using Boc-Gly-Arg-Arg-MCA as substrate incubated for 30 mins by fluorescence spectrophotometeric assay
[3] = Inhibition of DENV2 hydrophilic domain of NS2B (48 aminoacids)-NS3 (185 aminoacids) protease using Bz-Nle-Lys-Arg-Arg-AMC as substrate preincubated for 15 mins followed by substrate addition by spectrofluorometeric assay
[4] = Inhibition of DENV2 NS2B-G4-S-G4-NS3 protease using Bz-nKRR-AMC as substrate preincubated for 30 mins followed by substrate addition by fluorescence microplate reader assay
[5] = Inhibition of DENV2 NS2B-NS3 protease expressed in Escherichia coli BL21 (DE3) using Bz-Nle-Lys-Arg-Arg-AMC as substrate preincubated for 30 mins followed by substrate addition by fluorescence plate reader analysis
[6] = Inhibition of DENV2 recombinant NS2B-NS3 protease expressed in Escherichia coli C41 using GRR-AMC as substrate incubated for 15 mins by Lineweaver-Burk plot analysis
[7] = Inhibition of DENV2 recombinant CF40-glycine fused NS2B-NS3 protease expressed in Escherichia coli SG13009 using Ac-TTSTRR-pNA as substrate preincubated for 50 mins followed by substrate addition by spectrophotometric assay
[8] = Inhibition of DENV2 recombinant NS2B-(G4-S-G4)-NS3 protease using Bz-nKRR-AMC as substrate preincubated for 30 mins followed by substrate addition measured after 30 mins by fluorescence spectrophotometric analysis

- IC50 [1]: 15.4 µM
SMILES: CCCCCCCCCC[N+](CC)(CC)CCOc1ccc2c(c1)C(=O)c1cc(OCC[N+](CC)(CC)CCCCCCCCCC)ccc1-2

SMILES: O=C1C[C@@H](c2ccc3c(c2)OCCO3)Oc2ccccc21
- Ki [2]: 186 µM

SMILES: O=c1cc(-c2ccccc2)oc2ccc(-c3nnn[nH]3)cc12
- Ki [2]: 69 µM

- IC50 [3]: 0.91 µM
SMILES: Oc1c(C(Cc2nc3ccccc3s2)c2cccc(OCc3ccccc3)c2)ccc2ccccc12 (stereo not drawn)

SMILES: Cc1cc(C)c2c(c1)O[C@@H](c1ccc(N(C)C)cc1)CC2=O
- Ki [2]: 121 µM

- IC50 [4]: 300 µM
SMILES: Cc1[nH]c2ccccc2c1C(=O)NCc1ccc(CN2CCCC2)cc1

- IC50 [5]: 8.9 µM
SMILES: CC1CNC(c2ccc(Nc3nnc(Nc4ccc(C5=NC(C)CN5)cc4)c4ccccc34)cc2)=N1 (stereo not drawn)

- IC50 [1]: 20.5 µM
SMILES: CCN1/C(=C/C=C/c2oc3ccc(-c4ccccc4)cc3[n+]2CC)Oc2ccc(-c3ccccc3)cc21

SMILES: CC(=O)N[C@@H](CCC(=O)O)C(=O)N[C@H](C(=O)N[C@@H](CCCCN)C(=O)N[C@@H](CCCCN)C(=O)N[C@@H](CCC(N)=O)C(=O)N[C@@H](CCCNC(=N)N)C(N)=O)C(C)C (Ac-EVKKQR-NH2)
- Ki [6]: 66.7 µM

SMILES: CC(=O)N[C@@H](Cc1ccccc1)C(=O)N[C@@H](C)C(=O)N[C@@H](C)C(=O)NCC(=O)N[C@@H](CCCNC(=N)N)C(=O)N[C@@H](CCCCN)C(N)=O (Ac-FAAGRK-NH2)
- Ki [6]: 25.9 µM

SMILES: CC(=O)N[C@@H](Cc1ccccc1)C(=O)N[C@@H](C)C(=O)N[C@@H](C)C(=O)NCC(=O)N[C@@H](CCCNC(=N)N)C(=O)N[C@H](C=O)CCCNC(=N)N (Ac-FAAGRR-aldehyde)
- Ki [7]: 16 µM

SMILES: CC(=O)N[C@@H](Cc1ccccc1)C(=O)N[C@@H](C)C(=O)N[C@@H](C)C(=O)NCC(=O)N[C@@H](CCCNC(=N)N)C(=O)N[C@@H](CCCNC(=N)N)C(=O)C(=O)N[C@@H](CO)C(=O)N[C@@H](CC(C)C)C(N)=O (Ac-FAAGR[Arg(ψCOCO)]SL-NH2)
- Ki [7]: 47 µM

SMILES: CC(=O)NCC(=O)N[C@@H](CCCCN)C(=O)N[C@@H](CCCNC(=N)N)C(N)=O (Ac-Gly-Lys-Arg-NH2)
- Ki [6]: 152 µM

SMILES: CC(=O)N[C@@H](CCCCN)C(=O)N[C@@H](CCCNC(=N)N)C(N)=O (Ac-Lys-Arg-NH2)
- Ki [6]: 122 µM

SMILES: CC(=O)N[C@@H](CCCCN)C(=O)N[C@@H](CCCCN)C(=O)N[C@@H](CCCNC(=N)N)C(N)=O (Ac-Lys-Lys-Arg-NH2)
- Ki [6]: 22.3 µM

SMILES: CC(=O)N[C@@H](CCCNC(=N)N)C(=O)N[C@H](C(=O)N[C@@H](CO)C(=O)N[C@@H](CCCCN)C(=O)N[C@@H](CCCCN)C(=O)N[C@@H](CCCNC(=N)N)C(N)=O)[C@@H](C)O (Ac-RTSKKR-NH2)
- Ki [6]: 12.1 µM

SMILES: CC(=O)N[C@@H](CO)C(=O)N[C@@H](CCCCN)C(=O)N[C@@H](CCCCN)C(=O)N[C@@H](CCCNC(=N)N)C(N)=O (Ac-SKKR-NH2)
- Ki [6]: 188 µM

SMILES: CC(=O)N[C@H](C(=O)N[C@H](C(=O)N[C@@H](CO)C(=O)N[C@H](C(=O)N[C@@H](CCCNC(=N)N)C(=O)N[C@@H](CCCNC(=N)N)C(N)=O)[C@@H](C)O)[C@@H](C)O)[C@@H](C)O (Ac-TTSTRR-NH2)
- Ki [6]: 46 µM

SMILES: CC(=O)N[C@H](C(=O)N[C@H](C(=O)N[C@@H](CO)C(=O)N[C@H](C(=O)N[C@@H](CCCNC(=N)N)C(=O)N[C@@H](CCCNC(=N)N)C(=O)C(=O)NCC(=O)N[C@H](C(=O)NCC(=O)N[C@@H](CC(N)=O)C(N)=O)[C@@H](C)O)[C@@H](C)O)[C@@H](C)O)[C@@H](C)O (Ac-TTSTR[Arg(ψCOCO)]GTGN-NH2)
- Ki [7]: 368 µM

SMILES: CC(=O)N[C@H](C(=O)N[C@H](C(=O)N[C@@H](CO)C(=O)N[C@H](C(=O)N[C@@H](CCCNC(=N)N)C(=O)N[C@@H](CCCNC(=N)N)C(=O)C(=O)N[C@@H](CO)C(=O)N[C@@H](CC(C)C)C(N)=O)[C@@H](C)O)[C@@H](C)O)[C@@H](C)O (Ac-TTSTR[Arg(ψCOCO)]SL-NH2)
- Ki [7]: 220 µM

- IC50 [8]: 9.5 µM
SMILES: CCCC[C@H](NC(=O)c1ccccc1)C(=O)N[C@@H](CCCCN)C(=O)N[C@@H](CCCNC(=N)N)C(=O)N[C@H](C=O)CCCNC(=N)N (Bz-[Nle]KRR-aldehyde)

- IC50 [8]: 6.7 µM
SMILES: N=C(N)NCCC[C@@H](C=O)NC(=O)[C@H](CCCNC(=N)N)NC(=O)[C@H](CCCCN)NC(=O)Cc1ccccc1 (PhAc-Lys-Arg-Arg-aldehyde)

- IC50 [8]: 167 µM
SMILES: N=C(N)NCCC[C@@H](C=O)NC(=O)[C@H](CCCCN)NC(=O)[C@H](CCCCN)NC(=O)Cc1ccccc1 (PhAc-Lys-Lys-Arg-aldehyde)
